# Experimental data: patent publication US20160175308A1, “THERAPEUTIC AGENTS FOR MODULATING THYMIC FUNCTION AND/OR GROWTH AND/OR TREATING VARIOUS DISORDERS” (UCL BUSINESS PLC, priority 2013, published 2016)
# Key:
# Type in all cases: in vivo, mouse
# C57/BI6N wildtype mice [1] = assay: Lapatinib treatment of geriatric mice: thymus histology and BrdU immunohistochemistry; details: lapatinib vs control
# Protocol: Eighteen month old C57/BI6N wildtype mice used in Lapatinib studies were purchased from Charles River Laboratories (UK). All mice were housed on a 12 hour light/dark cycle, in individually ventilated cages with access to standard rodent diet (Harlan, UK) and tap water ad libitum. Mice were euthanized by intraperitoneal injection of 0.2 mL sodium pentobarbital (Euthatal, Merial Animal Health, UK).
# (§1) Dox was administered ad libitum in a foil-wrapped standard drinking bottle; fresh Dox was given every 48 hours. 300 mg Lapatinib (#J62401, Alfa Aesar, USA) was prepared in 12 mL DMSO (#472301, Sigma, UK) at a final concentration of 25 mg/mL. Mice were given 2.5 mg (100 µL) Lapatinib or an equivalent dose of DMSO alone 5 times per week for 4 weeks by oral gavage. One hour prior to euthanasia all mice for subsequent histological analysis were injected with 150 μL of 10 mg/mL BrdU solution (Invitrogen, UK) to label proliferating cells.
# All cell suspensions (thymus, lymph node, blood) were diluted to 1 million cells/mL for antibody staining and flow cytometry analysis. Antibodies for flow cytometry analysis were as follows: CD3-FITC (17a2, Invitrogen, UK), CD4-PE (I3t4, BD Pharmingen, UK), CD8a-Q605 (53-6.7, eBioscience, UK), CD19-A421 (6D5, Biolegend, UK), CD11b-A421 (eBioscience, UK), Ter119-A421 (TER119, eBioscience, UK), CD47-APC780 (1M7, eBioscience, UK), CD25-A660 (7D4, eBioscience, UK), Nk1.1-APC780 (PK136, eBioscience, UK), NkP46-a660 (29a1.4, eBioscience, UK). All antibodies were diluted to 2 μL/10̂6 cells in 1 mL final volume; unstained and single antibody stained controls were used to set all voltage and gate compensations. Antibody staining was for 30 minutes at 4 degrees Celsius, after which time cells were centrifuged at 1250 rpm for 5 minutes and cell pellets resuspended in 1 mL RPMI 1640. All flow cytometry analysis was performed on either an LSR2 or LSR Fortessa flow cytometry system. A minimum of 10,000 events was collected for each analysis (phenotype, T cell developmental stage, peripheral blood and lymph node cell analysis). […]
# C57/BI6N wildtype mice [2] = assay: Lapatinib treatment of geriatric mice: thymus size/weight; details: 18 month old mice, 2.5 mg/day lapatinib oral gavage 5x/week for 5 weeks vs DMSO control, n=10/group, p<0.05
# C57/BI6N wildtype mice [3] = assay: Lapatinib treatment of elderly mice: thymus cell counts and flow cytometry of T lymphocyte populations; details: n=5/group
# Protocol: […] All mice were housed on a 12 hour light/dark cycle, in individually ventilated cages with access to standard rodent diet (Harlan, UK) and tap water ad libitum. Mice were euthanized by intraperitoneal injection of 0.2 mL sodium pentobarbital (Euthatal, Merial Animal Health, UK).
# as §1
# Thymus and lymph nodes were prepared for flow cytometry by incubation in a 2 mL solution of RPMI […] (Invitrogen, UK) containing Liberase TL (0.3 mg/mL; Roche, Germany) plus DNAse I (0.2 mg/ml, Roche, Germany) for 30 minutes at 37 degrees Celsius. Thymus and lymph node tissue was then macerated through a […] filter (BD, USA) and enzymes inactivated by further washing with 30 mL PBS (Invitrogen, UK) plus 5 mM EDTA (Sigma, UK). This single cell suspension was centrifuged for 5 minutes at 1250 rpm, the supernatant removed, and the cell pellet resuspended in 3 mL RPMI 1640 (lymph nodes) or 5 mL RPMI 1640 (thymus). Total cell counts were obtained using a Millicell automated hematocytometer. Blood cells were prepared for flow cytometry by direct blood collection from the descending aorta in a capillary Microvette tube containing EDTA (CB 300 K2E, Sarstedt, Germany), elimination of red blood cells using lysis buffer (R7757, Sigma, UK) and dilution in 30 mL RPMI 1640. Blood cells were then pelleted by centrifugation as above and resuspended in 20 mL RPMI 1640 and cell counts obtained using a Millicell automated hematocytometer.
# All cell suspensions (thymus, lymph node, blood) were diluted to 1 million cells/mL for antibody staining and flow cytometry analysis. Antibodies for flow cytometry analysis were as follows: CD3-FITC (17a2, Invitrogen, UK), CD4-PE (I3t4, BD Pharmingen, UK), CD8a-Q605 (53-6.7, eBioscience, UK), CD19-A421 (6D5, Biolegend, UK), CD11b-A421 (eBioscience, UK), Ter119-A421 (TER119, eBioscience, UK), CD47-APC780 (1M7, eBioscience, UK), CD25-A660 (7D4, eBioscience, UK), Nk1.1-APC780 (PK136, eBioscience, UK), NkP46-a660 (29a1.4, eBioscience, UK). All antibodies were diluted to 2 μL/10̂6 cells in 1 mL final volume; unstained and single antibody stained controls were used to set all voltage and gate compensations. Antibody staining was for 30 minutes at 4 degrees Celsius, after which time cells were centrifuged at 1250 rpm for 5 minutes and cell pellets resuspended in 1 mL RPMI 1640. All flow cytometry analysis was performed on either an LSR2 or LSR Fortessa flow cytometry system. A minimum of 10,000 events was collected for each analysis (phenotype, T cell developmental stage, peripheral blood and lymph node cell analysis). All experiments represent at least an n=4 for each condition and all analyses were done using FlowJo software. Thymus tissue sections were prepared for BrdU immunohistochemistry by dewaxing using an automated tissue staining system (TissueTek), blocking for 1 hour at room temperature in blocking solution (PBS containing 10% fetal bovine serum (10270-106, Invitrogen, UK) plus fish skin gelatin (G7765, Sigma, UK)). A BrdU primary antibody (rat, Covance, UK) was diluted in blocking solution and slides were incubated overnight in this antibody solution at 4 degrees Celsius. Slides were then washed in PBS and an anti-rat Alexa 555 secondary antibody (Invitrogen, UK) was applied in blocking solution for 3 hours at room temperature, washed, and slides coverslipped using Mowiol mounting media.
# [4] = 15-18 month old mice vs DMSO treated controls
# [5] = 15 month old mice, CD4/CD8/lineage negative thymocytes, vs DMSO
compound,measurement,setting,value
"CS(=O)(=O)CCNCc1ccc(-c2ccc3ncnc(Nc4ccc(OCc5cccc(F)c5)c(Cl)c4)c3c2)o1 [Lapatinib, N-[3-chloro-4-[(3-fluorophenyl)methoxy]phenyl]-6-[5-[(2-methylsulfonylethylamino)methyl]-2-furyl]quinazolin-4-amine]",BrdU cell abundance (thymocyte proliferation),"C57/BI6N wildtype mice [1]; BrdU staining, n=5/treatment type, p<0.05",statistically significant increase in thymocyte proliferation
same,thymus histological appearance (cortico-medullary boundaries),C57/BI6N wildtype mice [1]; H&E sections,restored thymic cortico-medullary boundaries and improved overall thymus histological appearance
same,thymus involution,C57/BI6N wildtype mice [1]; elderly mice,reverses thymus involution
same,thymus size / thymus weight,C57/BI6N wildtype mice [2],increase thymus weight
same,thymus size / thymus weight,C57/BI6N wildtype mice [2]; listed as lapatinib,increases thymus size
same,CD4 T cell production,C57/BI6N wildtype mice [3]; [4],trend towards increased
same,CD8 T cell production,C57/BI6N wildtype mice [3]; [4],trend towards increased
same,DN-T T cell production,C57/BI6N wildtype mice [3]; [4],trend towards increased
same,"production of immature (double positive, DP-T) T lymphocytes",C57/BI6N wildtype mice [3]; [4],increases production
same,thymus cell abundance,C57/BI6N wildtype mice [3]; [4],increased thymus cell abundance
same,DN1 (CD44+/CD25−) immature T cell abundance,C57/BI6N wildtype mice [3]; [5],significantly reduced
same,DN2 (CD44+/CD25+) immature T cell abundance,C57/BI6N wildtype mice [3]; [5],significantly reduced
same,DN4 (CD44/CD25 negative) cell abundance,C57/BI6N wildtype mice [3]; [5],increased
